Source: US6046177A, “Sulfoalkyl ether cyclodextrin based controlled release solid pharmaceutical formulations” (Cydex, Inc., priority 1999, dated 2000)
In brackets after ≈: the same amount, converted by molar mass.

Key:
[1] = cited from earlier work; for dissolution of complex vs. physical mixture: β-cyclodextrin complex vs. physical mixture
[2] = gels with methyl-β-cyclodextrin; cited from earlier work
[3] = in words; cited from earlier work
[4] = In vitro release of dipyridamole from coated tablets (USP apparatus II); type: physicochemical
Experimental: The sample volume was 20 μl and the UV detection wavelength was […] (Shimadzu 6A, Shimadzu, Japan). A mobile phase consisting of 70% methanol and 30% ammonium phosphate buffer (pH 5.0) was passed through the column at a flow rate of 1.5 ml/min. (SBE)7m -β-CD was detected by using a fluorimetric assay, 0.2 ml of a 1 mM solution of 2,6-toluidino-naphthalene-sulfonate to 0.8 ml of the sample. This solution was then excited at 325 nm and the emitted fluorescence detected at 455 nm using a Perkin 25 Elmer (Perkin-Elmer, CT) Fluorescence detector.
The ground physical mixture was then sieved through a 200 mesh (75 μm) screen. This process was repeated twice. This mixture was always stored in a desiccator when not used.
The dissolution die consists of a cylindrical stainless steel center-piece,a stainless steel platform, a stainless steel top cover, two Teflon sheets (top and bottom) and Teflon inserts. The cylindrical center-piece has a hole (radius=7.5 mm ) at the center in which the tablet is compressed. Both, the stainless steel top cover and top Teflon sheet have holes of same radius at the center. The center-piece was inverted and screwed onto the platform. […] The tablet core was compressed with a force of one ton for one minute using Carver press (Fred Carver Inc., NJ). The punch was carefully removed from the center-piece.
™ coatings were made by dissolving 5% (w/w) of […]™ R or S (Huls America, NJ), 5% of urea (SIGMA, MO) or polyethylene glycol (PEG 3350, SIGMA, MO) and 0.75% of triethyl Citrate (TEC, SIGMA, MO) in 89.25% ethanol. This was carried out until a clear solution was obtained. Cellulose acetate (CA-320S7 Eastman Chemical Co., TN) and hydroxypropyl methylcellulose phthalate (HPMCP, Eastman Chemical Co., TN) polymeric solutions were made by dissolving 5% of polymers and 1% of TEC in 94% of solvent containing equal amounts of methylene chloride and methanol. The ratio of CA to HPMCP was varied from 50:50 to 75:25 but the total amount of polymer was always maintained at 5%. The dissolution was carried out until clear solutions were obtained.
This coating solution was then air sprayed directly on the tablet surface under constant air flow (approx. 70° C.). The coated tablets were dried additionally for a period of 15 minutes under the same air flow. The tablets were additionally dried for a period of 12-16 hr. at room temperature. The thickness of the membrane was assumed to be the difference of thickness of the tablet after and before coating. The thickness measurements were carried out using a Screw-gauge micrometer.
The release studies for tablets coated with Eudragit L and CA: HPMCP were conducted by placing the dissolution die in a USP dissolution apparatus II (Vanderkamp 600, VanKel Industries Inc.) containing 450 ml of HCl (pH 1.5, 37° C. and 100 r.p.m.). […] 1.5 ml samples were collected periodically and equal amounts of dissolution medium was returned to the dissolution vessel. For the CA: HPMCP coated tablet, 100% release was determined by removing the membrane from the die and allowing the drug dissolution to be complete. The release experiments for tablets coated with Eudragit were conducted similarly in 450 ml of HCl for the first 2 hours, then placed in a phosphate buffer (pH 6.4) for additional 5 hr. and then placed in a phosphate buffer (pH 7.2). The release conditions and procedures were as described above.
0.5 ml of the sample was diluted by half in the mobile phase and the diluted samples were then analyzed using HPLC assay to determine drug concentrations as described in a later section.

[5] = as above; type: physicochemical; settings: for release of DP without SAE-CD: core DP, citric acid, fructose-lactose
physchem = assay: physchem
Experimental: (SBE)7 -β-CD (0-0.1 M) solutions were made in different buffer solutions at pH values ranging from 4.0 to 7.0 (citrate for 4 & 5; phosphate for 6 &7). […] The solutions were centrifuged for 10 min. at 2500 rpm. 20 μl of the supernatant was carefully sampled using a 100 μl gas-tight Hamilton Syringe (Hamilton, Nev.), diluted with mobile phase and analyzed by HPLC. The solubility data was then used to determine the binding constant using the method of Higuchi and Connors for AL-type phase behavior.

pKa of dipyridamole = type: physicochemical; settings: basic drug
[6] = osmotic pump tablet with (SBE)7M -β-CD; cited from earlier work
[7] = Release of prednisolone and SBE7 β-CD from uncoated controlled release tablet cores; type: physicochemical; settings: for effect of HPMC viscosity 15,000 to 100,000 cps on release: 5% PD
Experimental: The above ingredients are used to make a 300 mg tablet core having a controlled release profile. The ingredients were blended by hand and individual tablets were prepared on a carver press under a pressure of 1 ton for 7 seconds. The tablets were prepared using a 5/16" standard cup concave tooling. The determination of the release profile by dissolution was conducted according to USP method 2 at 37°, 100 rpm with paddles in a 900 ml water bath. The amounts of prednisolone (PD) released was determined by HPLC, and the amount of SBE7 -βCD released was determined by TNS as described herein.

CC(=O)Nc1ccc(O)cc1 [acetaminophen]
dissolution of complex vs. physical mixture [1]: significantly better, dissolution profile

N=C(N)NCC1CCC(C(=O)Oc2ccccc2C(=O)OCc2ccccc2)CC1 (centres unmarked) [benexate]
solubility of complex vs. physical mixture ([1]; cyclodextrin complex vs. physical mixture or neat): significantly increased solubility

O=C1CN=C(c2ccccc2Cl)c2cc([N+](=O)[O-])ccc2N1 [clonazepam]
flux rate of clonazepam [2]: improves the flux rate

OCCN(CCO)c1nc(N2CCCCC2)c2nc(N(CCO)CCO)nc(N3CCCCC3)c2n1 [dipyridamole]
bioavailability [3]: low and variable bioavailability | type of release ([4]; 90 μm film, CA:HPMCP 1:1, FIG. 14): delayed release | type of release ([4]; 105 μm film, CA:HPMCP 6:4, FIG. 14): combined delayed and controlled release | effect of film thickness on release profile ([4]; CA/HPMCP film 90 μm to 170 μm, FIG. 13): did not appear to substantially affect the release profile | type of release ([4]; CA:HPMCP 1:1 film, FIG. 12): combined delayed and controlled release | effect of film thickness on release profile ([4]; EUDRAGIT-L/urea film, physical mixture core, FIG. 10): independent of film thickness but dependent upon solution pH | pH at which DP is released ([4]; EUDRAGIT-S and urea film, FIG. 11): ~7.2 | pH at which DP is released ([4]; comparison (EUDRAGIT-L and urea film)): about 6.8 | release profile, SBE7 β-CD vs. DP ([5]; EUDRAGIT-L film 150 μm, pH raised from 1.5 to 6.8 after two hours, FIG. 9): substantially the same release profile | release delay ([5]; EUDRAGIT-L film, pH 1.5 to 6.8, FIG. 9): two hour delay | release of DP without SAE-CD ([5]; CA:HPMCP (50:50) 120 μm film): no release of DP was obtained | release of DP without SAE-CD ([5]; EUDRAGIT-L and urea (50:50) 120 μm film): incomplete release of DP was observed | solubility at 24 h (physchem; citrate buffer with sbe7 β-cd, pH 4): 16000 µg/mL (≈ 31700 µM) | solubility at 24 h (physchem; citrate buffer, pH 4, aqueous buffer): 1990 µg/mL (≈ 3940 µM) | solubility at 24 h (physchem; phosphate buffer with sbe7 β-cd, pH 7): 504 µg/mL (≈ 999 µM) | solubility at 24 h (physchem; phosphate buffer, pH 7, aqueous buffer): 3.56 µg/mL (≈ 7.05 µM) | solubility (physchem; water): 3.6 µg/mL (≈ 7.13 µM) | pKa (pKa of dipyridamole): 6.28

COc1ccc2c(c1)c(CC(=O)O)c(C)n2C(=O)c1ccc(Cl)cc1 [indomethacin]
dissolution of complex vs. physical mixture [1]: significantly better, dissolution profile

CCC1(c2ccccc2)C(=O)NC(=O)NC1=O [phenobarbitone]
controlled dissolution, preformed complex vs. physical mixture ([1]; β-cyclodextrin): preformed complex performs substantially better than the physical mixture

CN1C(C(=O)Nc2ccccn2)=C(O)c2ccccc2S1(=O)=O [piroxicam]
dissolution of complex vs. physical mixture [1]: significantly better, dissolution profile

C[C@]12C=CC(=O)C=C1CC[C@@H]1[C@@H]2[C@@H](O)C[C@@]2(C)[C@H]1CC[C@]2(O)C(=O)CO [prednisolone]
release profile [6]: sustained release profile is provided by the osmotic pump tablet so long as the semipermeable membrane is present | effect of HPMC viscosity 15,000 to 100,000 cps on release ([7]; 35% SAE-CD, 50% HPMC, 10% lactose, FIG. 20): substantially independent of the viscosity of the HPMC | effect of HPMC viscosity 15,000 to 100,000 cps on release ([7]; 70% SAE-CD, 25% HPMC, FIG. 19): the rate of delivery of the PD and the overall amount of PD delivered increases | effect of decreasing SAE-CD (increasing lactose) on delivery ([7]; PD 5%, HPMC approximately 25%, FIG. 17): the rate of delivery of the PD and the overall amount of PD delivered decrease | effect of increasing release rate modifier ratio on release rate ([7]; PD 5%, SAE-CD 35%, HPMC 25% to 50%, FIG. 18): the release rate of the drug is decreased | PD released ([7]; control HPMC K100M, no cyclodextrin, eleven hours, FIG. 19): approximately 50 % by weight | PD released ([7]; control HPMC K100M, no cyclodextrin, six hours, FIG. 19): approximately 30 % by weight | PD released ([7]; no cyclodextrin, HPMC, after eleven hours, FIG. 16): approximately 50 % by weight | drug released ([7]; release rate modifier:drug approximately 5:1, 12 hours, FIG. 18): 75-90% | drug released ([7]; release rate modifier:drug approximately 5:1, about six hours, FIG. 18): 65-75% | drug released ([7]; release rate modifier:drug approximately 10:1, 12 hours, FIG. 18): 55-60% | drug released ([7]; release rate modifier:drug approximately 10:1, about six hours, FIG. 18): 40-50% | PD released ([7]; with SAE-CD, HPMC, approximately six hours, FIG. 16): greater than 90% | PD released ([7]; with SAE-CD, HPMC, eleven hours, FIG. 16): substantially complete delivery of the drug

CN1C(=O)C(O)N=C(c2ccccc2)c2cc(Cl)ccc21 (centres unmarked) [temazepam]
dissolution of complex vs. physical mixture [1]: In only one of several examples did Martini et al. obtain a physical mixture formulation having a dissolution profile comparable to that of the preformed complex formulation

Cc1cccc(N(C)C(=S)Oc2ccc3ccccc3c2)c1 [tolnaftate]
dissolution of complex vs. physical mixture [1]: improved dissolution over the physical mixture or free drug

CC(=O)CC(c1ccccc1)c1c(O)c2ccccc2oc1=O (centres unmarked) [warfarin]
dissolution of complex vs. physical mixture [1]: significantly better, dissolution profile
